Laboratory results as given in patent publication US8492374B2, “Azaazulene compounds” (Industrial Technology Research Institute, priority 2009, dated 2013).

Tests used:
KDR kinase = biological target: T1, KDR kinase (Homo sapiens, UniProt P35968); test: KDR kinase DELFIA assay (HTScan VEGFR-2 Kinase Assay Kit); type: biochemical; details: 20 uM ATP
T1 construct: human VEGFR-2 (Val789-Val1356); GST (N); purchased Cell Signaling Technology HTScan VEGFR-2 Kinase Assay Kit; host or cells: baculovirus expression system
T1 sequence (P35968 789-1356): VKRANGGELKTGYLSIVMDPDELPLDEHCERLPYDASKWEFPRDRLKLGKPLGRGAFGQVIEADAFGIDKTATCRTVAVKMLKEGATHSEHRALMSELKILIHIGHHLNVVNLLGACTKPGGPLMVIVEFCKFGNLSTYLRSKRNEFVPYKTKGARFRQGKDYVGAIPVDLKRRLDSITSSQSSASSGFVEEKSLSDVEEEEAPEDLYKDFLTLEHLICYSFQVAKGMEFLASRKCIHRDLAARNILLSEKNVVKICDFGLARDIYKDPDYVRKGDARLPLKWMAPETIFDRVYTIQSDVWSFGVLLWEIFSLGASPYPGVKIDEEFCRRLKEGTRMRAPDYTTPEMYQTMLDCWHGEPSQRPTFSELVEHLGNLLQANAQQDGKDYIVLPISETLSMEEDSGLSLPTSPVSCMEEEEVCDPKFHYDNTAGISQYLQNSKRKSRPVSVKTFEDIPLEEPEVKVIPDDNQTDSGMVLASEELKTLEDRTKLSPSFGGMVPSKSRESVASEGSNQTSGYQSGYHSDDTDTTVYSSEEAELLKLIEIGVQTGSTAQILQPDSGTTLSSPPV
Protocol: Azaazulene Compounds of this invention were treated for their efficacy in inhibiting activities of FLT-3, c-KIT and KDR kinases by biochemical DELFIA (Dissociation Enhanced Lanthanide FIA) assays according to the procedure described below. The assays were conducted by, Division of Cell Engineering, Biomedical Engineering Research Laboratories, Industrial Technology Research Institute, Bldg. 53, 195, sec. 4, Chung Hsing Rd. Chutung, Hsinchu, Taiwan 310, R.O.C.
The KDR assay was conducted following the protocol described in Protocol for HTScan™ VEGFR-2 Kinase Assay Kit (Cell Signaling Technology™).

BLK = BLK (Homo sapiens, UniProt P51451); test: Kinase panel assay (SelectScreen Kinase Profiling, Invitrogen); type: biochemical; details: 1000 nM of compound B26
Protocol: (§1) The kinase panel assay of compound B26 of this invention was performed by SelectScreen® Kinase Profiling Services of Invitrogen. The inhibitory effects of 1000 nM of compound B26 against various kinases whom shown >50% inhibitory effects are summarized in following Table 5.

CSF1R (FMS) = CSF1R (FMS) (Homo sapiens, UniProt P07333); test: as above; type: biochemical; details: 1000 nM of compound B26
Protocol: as §1

FGFR1 = FGFR1 (Homo sapiens, UniProt P11362); test: as above; type: biochemical; details: 1000 nM of compound B26
Protocol: as §1

FGFR2 = FGFR2 (Homo sapiens, UniProt P21802); test: as above; type: biochemical; details: 1000 nM of compound B26
Protocol: as §1

FGFR3 = FGFR3 (Homo sapiens, UniProt P22607); test: as above; type: biochemical; details: 1000 nM of compound B26
FGFR3, sequence (P22607 23-806): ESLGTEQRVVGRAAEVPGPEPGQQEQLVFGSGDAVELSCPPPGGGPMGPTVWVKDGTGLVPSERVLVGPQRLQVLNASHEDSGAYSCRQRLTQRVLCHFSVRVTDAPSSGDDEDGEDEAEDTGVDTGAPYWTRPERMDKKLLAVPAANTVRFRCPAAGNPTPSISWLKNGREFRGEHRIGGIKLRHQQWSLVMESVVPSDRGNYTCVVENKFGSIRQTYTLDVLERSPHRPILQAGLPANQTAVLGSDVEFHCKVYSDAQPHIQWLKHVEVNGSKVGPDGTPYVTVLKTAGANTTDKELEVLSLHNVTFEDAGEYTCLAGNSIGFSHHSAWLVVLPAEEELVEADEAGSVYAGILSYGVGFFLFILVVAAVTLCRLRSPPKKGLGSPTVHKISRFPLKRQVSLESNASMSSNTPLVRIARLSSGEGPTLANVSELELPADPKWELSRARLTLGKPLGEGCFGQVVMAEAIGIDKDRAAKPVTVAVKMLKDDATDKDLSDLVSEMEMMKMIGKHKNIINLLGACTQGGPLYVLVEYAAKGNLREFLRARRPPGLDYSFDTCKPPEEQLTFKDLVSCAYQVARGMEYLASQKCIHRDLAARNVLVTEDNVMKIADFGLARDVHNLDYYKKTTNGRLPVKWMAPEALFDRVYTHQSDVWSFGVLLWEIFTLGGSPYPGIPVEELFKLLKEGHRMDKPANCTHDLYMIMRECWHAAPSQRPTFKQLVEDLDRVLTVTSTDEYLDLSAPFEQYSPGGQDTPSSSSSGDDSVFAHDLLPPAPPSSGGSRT
Protocol: as §1

FGFR3 K650E = FGFR3 K650E (Homo sapiens, UniProt P22607, K650E); test: as above; type: biochemical; details: 1000 nM of compound B26
FGFR3 K650E, sequence (P22607 23-806 K650E): as the sequence (P22607 23-806) above, with K628E counted along it
Protocol: as §1

FLT3 = FLT3 (Homo sapiens, UniProt P36888); test: as above; type: biochemical; details: 1000 nM of compound B26
Protocol: as §1

FLT3 D835Y = FLT3 D835Y (Homo sapiens, UniProt P36888, D835Y); test: as above; type: biochemical; details: 1000 nM of compound B26
Protocol: as §1

KDR (VEGFR2) = KDR (VEGFR2) (Homo sapiens, UniProt P35968); test: as above; type: biochemical; details: 1000 nM of compound B26
Protocol: as §1

LYN A = LYN A (Homo sapiens, UniProt P07948); test: as above; type: biochemical; details: 1000 nM of compound B26
Protocol: as §1

LYN B = LYN B (Homo sapiens, UniProt P07948); test: as above; type: biochemical; details: 1000 nM of compound B26
LYN B, sequence (P07948 1-491 isoform P07948-2): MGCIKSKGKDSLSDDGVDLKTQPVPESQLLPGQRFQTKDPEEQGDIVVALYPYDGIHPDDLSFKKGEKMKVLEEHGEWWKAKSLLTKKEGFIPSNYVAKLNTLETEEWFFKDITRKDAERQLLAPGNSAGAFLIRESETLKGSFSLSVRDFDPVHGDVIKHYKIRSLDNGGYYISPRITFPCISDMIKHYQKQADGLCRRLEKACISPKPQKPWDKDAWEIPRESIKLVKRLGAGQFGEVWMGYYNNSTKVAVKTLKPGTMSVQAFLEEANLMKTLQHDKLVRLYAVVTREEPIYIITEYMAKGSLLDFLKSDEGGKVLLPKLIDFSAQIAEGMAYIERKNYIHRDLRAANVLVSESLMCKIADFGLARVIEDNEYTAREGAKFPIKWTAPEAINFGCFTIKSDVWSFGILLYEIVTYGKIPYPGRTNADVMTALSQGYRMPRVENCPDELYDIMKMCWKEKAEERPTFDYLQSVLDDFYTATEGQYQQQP
Protocol: as §1

MAP4K5 (KHS1) = MAP4K5 (KHS1) (Homo sapiens, UniProt Q9Y4K4); test: as above; type: biochemical; details: 1000 nM of compound B26
Protocol: as §1

NTRK1 (TRKA) = NTRK1 (TRKA) (Homo sapiens, UniProt P04629); test: as above; type: biochemical; details: 1000 nM of compound B26
Protocol: as §1

NTRK2 (TRKB) = NTRK2 (TRKB) (Homo sapiens, UniProt Q16620); test: as above; type: biochemical; details: 1000 nM of compound B26
NTRK2 (TRKB), sequence (Q16620 32-822): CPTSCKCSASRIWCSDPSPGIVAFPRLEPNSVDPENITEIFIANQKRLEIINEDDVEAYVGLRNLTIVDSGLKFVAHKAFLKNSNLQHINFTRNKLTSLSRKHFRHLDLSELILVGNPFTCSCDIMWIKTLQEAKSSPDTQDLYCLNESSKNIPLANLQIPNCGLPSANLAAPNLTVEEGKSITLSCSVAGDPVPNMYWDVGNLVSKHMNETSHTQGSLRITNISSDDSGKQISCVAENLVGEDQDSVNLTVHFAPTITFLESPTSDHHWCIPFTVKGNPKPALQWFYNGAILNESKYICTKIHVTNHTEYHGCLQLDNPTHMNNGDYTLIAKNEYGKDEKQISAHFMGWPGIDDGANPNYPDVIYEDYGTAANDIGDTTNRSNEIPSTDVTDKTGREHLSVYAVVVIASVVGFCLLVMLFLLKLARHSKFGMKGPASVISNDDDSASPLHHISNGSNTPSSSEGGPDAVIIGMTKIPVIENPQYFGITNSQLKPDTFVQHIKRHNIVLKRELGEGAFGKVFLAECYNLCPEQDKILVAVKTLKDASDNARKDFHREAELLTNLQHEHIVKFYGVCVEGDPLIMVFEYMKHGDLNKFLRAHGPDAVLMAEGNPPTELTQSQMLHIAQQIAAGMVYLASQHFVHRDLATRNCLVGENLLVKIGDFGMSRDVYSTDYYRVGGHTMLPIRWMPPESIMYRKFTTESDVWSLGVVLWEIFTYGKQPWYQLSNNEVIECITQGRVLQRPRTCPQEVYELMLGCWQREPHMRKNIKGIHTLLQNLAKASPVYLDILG
Protocol: as §1

NTRK3 (TRKC) = NTRK3 (TRKC) (Homo sapiens, UniProt Q16288); test: as above; type: biochemical; details: 1000 nM of compound B26
Protocol: as §1

RET = RET (Homo sapiens, UniProt P07949); test: as above; type: biochemical; details: 1000 nM of compound B26
RET, sequence (P07949 29-1114): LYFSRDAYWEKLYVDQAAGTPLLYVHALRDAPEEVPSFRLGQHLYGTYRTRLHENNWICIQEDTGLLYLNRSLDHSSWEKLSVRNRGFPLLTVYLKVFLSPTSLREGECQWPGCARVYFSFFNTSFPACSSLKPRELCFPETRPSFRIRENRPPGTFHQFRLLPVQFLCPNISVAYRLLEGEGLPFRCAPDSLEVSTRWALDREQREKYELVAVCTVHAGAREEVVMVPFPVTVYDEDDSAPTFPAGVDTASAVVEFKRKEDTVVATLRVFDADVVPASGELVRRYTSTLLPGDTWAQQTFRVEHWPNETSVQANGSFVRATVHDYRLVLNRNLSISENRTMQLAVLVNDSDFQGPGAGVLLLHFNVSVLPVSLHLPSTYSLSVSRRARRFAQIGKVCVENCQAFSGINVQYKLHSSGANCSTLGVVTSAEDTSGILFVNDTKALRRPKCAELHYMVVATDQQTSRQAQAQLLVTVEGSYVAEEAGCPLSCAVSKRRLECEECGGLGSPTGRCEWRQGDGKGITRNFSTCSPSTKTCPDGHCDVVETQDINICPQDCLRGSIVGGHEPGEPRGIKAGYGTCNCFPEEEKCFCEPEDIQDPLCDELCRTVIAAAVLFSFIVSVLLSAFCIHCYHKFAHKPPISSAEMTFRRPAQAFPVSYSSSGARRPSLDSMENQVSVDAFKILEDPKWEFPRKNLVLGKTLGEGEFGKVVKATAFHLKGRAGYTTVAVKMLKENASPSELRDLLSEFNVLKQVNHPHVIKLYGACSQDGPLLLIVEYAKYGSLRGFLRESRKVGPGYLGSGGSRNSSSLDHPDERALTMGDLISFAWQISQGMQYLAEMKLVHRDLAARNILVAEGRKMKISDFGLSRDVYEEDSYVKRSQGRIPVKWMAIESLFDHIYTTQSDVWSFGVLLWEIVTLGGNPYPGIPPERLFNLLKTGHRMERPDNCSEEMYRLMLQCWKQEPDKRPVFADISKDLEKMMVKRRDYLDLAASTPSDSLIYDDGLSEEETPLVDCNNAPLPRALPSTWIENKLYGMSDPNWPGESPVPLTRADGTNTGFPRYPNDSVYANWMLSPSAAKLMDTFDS
Protocol: as §1

RET V804L = RET V804L (Homo sapiens, UniProt P07949, V804L); test: as above; type: biochemical; details: 1000 nM of compound B26
RET V804L, sequence (P07949 29-1114 V804L): as the sequence (P07949 29-1114) above, with V776L counted along it
Protocol: as §1

SRC = SRC (Homo sapiens, UniProt P12931); test: as above; type: biochemical; details: 1000 nM of compound B26
Protocol: as §1

SRC N1 = SRC N1 (Homo sapiens, UniProt P12931); test: as above; type: biochemical; details: 1000 nM of compound B26
SRC N1, sequence (P12931 1-542 isoform P12931-2): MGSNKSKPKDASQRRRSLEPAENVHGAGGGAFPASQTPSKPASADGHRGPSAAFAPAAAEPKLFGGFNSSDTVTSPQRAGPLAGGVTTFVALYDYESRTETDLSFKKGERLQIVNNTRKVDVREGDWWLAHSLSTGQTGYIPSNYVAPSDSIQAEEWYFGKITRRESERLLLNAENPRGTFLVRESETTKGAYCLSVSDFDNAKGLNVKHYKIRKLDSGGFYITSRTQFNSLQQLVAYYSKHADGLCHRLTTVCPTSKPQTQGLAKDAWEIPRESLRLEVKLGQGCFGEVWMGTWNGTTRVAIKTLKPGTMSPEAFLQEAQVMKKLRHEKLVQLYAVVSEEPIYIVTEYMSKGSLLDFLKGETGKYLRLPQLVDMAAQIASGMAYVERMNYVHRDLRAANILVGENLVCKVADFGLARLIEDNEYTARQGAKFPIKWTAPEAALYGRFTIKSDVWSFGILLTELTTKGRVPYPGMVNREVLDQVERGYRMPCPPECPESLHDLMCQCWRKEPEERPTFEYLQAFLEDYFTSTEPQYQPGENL
Protocol: as §1

STK4 (MST1) = STK4 (MST1) (Homo sapiens, UniProt Q13043); test: as above; type: biochemical; details: 1000 nM of compound B26
Protocol: as §1

YES1 = YES1 (Homo sapiens, UniProt P07947); test: as above; type: biochemical; details: 1000 nM of compound B26
YES1, sequence (P07947 whole entry): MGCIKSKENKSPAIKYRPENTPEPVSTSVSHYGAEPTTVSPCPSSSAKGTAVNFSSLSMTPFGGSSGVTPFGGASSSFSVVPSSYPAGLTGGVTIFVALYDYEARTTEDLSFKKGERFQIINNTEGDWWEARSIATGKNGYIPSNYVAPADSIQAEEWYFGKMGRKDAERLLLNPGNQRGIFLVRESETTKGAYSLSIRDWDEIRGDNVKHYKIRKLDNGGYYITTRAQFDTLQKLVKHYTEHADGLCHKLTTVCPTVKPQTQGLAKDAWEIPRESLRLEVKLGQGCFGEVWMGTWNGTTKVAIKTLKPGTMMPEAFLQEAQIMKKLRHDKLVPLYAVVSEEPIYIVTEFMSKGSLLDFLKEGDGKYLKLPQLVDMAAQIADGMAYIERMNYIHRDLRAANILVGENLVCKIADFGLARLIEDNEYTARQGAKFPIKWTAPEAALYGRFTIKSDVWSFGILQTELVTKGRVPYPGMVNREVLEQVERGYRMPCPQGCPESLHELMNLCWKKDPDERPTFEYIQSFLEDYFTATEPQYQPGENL
Protocol: as §1

[1] = tested on: MV4-11 (FLT3-ITD) cell line; test: In vitro cell activity assay (MTT cell viability, 72 hours); type: cell-based; details: Homo sapiens, 72 hours at 37° C., 10,000 cells per well, read-out: IC50 against MV4-11
Outline: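 Compound serial dilutions applied to MV4-11 (FLT3-ITD) cells, 10,000 per well, for 72 hours at 37° C. Viability by MTT, formazan dissolved in DMSO, absorbance at 600 nm; IC50 by nonlinear regression as concentration halving absorbance versus untreated cells.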

[2] = tested on: MV4-11 (FLT3-ITD) subcutaneous tumor xenograft; test: MV4-11 subcutaneous tumor xenograft model; type: in vivo, BALB/c nude mice; details: for tumor complete regression of all mouse: oral gavage
Protocol: The procedures for establishing tumor xenografts and the dosing of B26 were carried out and accordance with ITRI institutional animal care and use committee in an IACUC. Female BALB/c nude mice (6 to 8 weeks old) were purchased from BioLASCO Co., Ltd. (Taipei, Taiwan). Female BALB/c nude mice were implanted subcutaneously in the right flank with 1×10^7 MV4-11 (FLT3-ITD) cells per mice. Treatments were initiated when tumors were 150 to 200 mm^3 in size. Mice were randomly assigned into cohorts (typically 4 mice per group for efficacy studies). B26 (50 and 150 mg/kg, bid.) and vehicle were given via oral gavage for 14 days from the 16th day after inoculation. Tumor volumes were assessed everyday and body weights were assessed two times weekly. Caliper measurements of tumors were converted into mean tumor volume using the formula: 0.5×[length×(width)^2].
Compound B26 of this invention is a novel and potent FLT3 inhibitor with promising anti-tumor and anti-leukemia activity.

inhibition at 0.1 µM (KDR kinase; 0.1 uM compound, read-out: Kinases inhibitory activities against KDR kinase, 0.1 uM): 71.3%
inhibition at 1 µM (KDR kinase; 1 uM compound, read-out: Kinases inhibitory activities against KDR kinase, 1 uM): 96.9%
inhibition at 1 µM (BLK): 52%
inhibition at 1 µM (CSF1R (FMS)): 60%
inhibition at 1 µM (FGFR1): 54%
inhibition at 1 µM (FGFR2): 48%
inhibition at 1 µM (FGFR3): 62%
inhibition at 1 µM (FGFR3 K650E): 47%
inhibition at 1 µM (FLT3): 95%
inhibition at 1 µM (FLT3 D835Y): 98%
inhibition at 1 µM (KDR (VEGFR2)): 64%
inhibition at 1 µM (LYN A): 57%
inhibition at 1 µM (LYN B): 51%
inhibition at 1 µM (MAP4K5 (KHS1)): 60%
inhibition at 1 µM (NTRK1 (TRKA)): 89%
inhibition at 1 µM (NTRK2 (TRKB)): 84%
inhibition at 1 µM (NTRK3 (TRKC)): 76%
inhibition at 1 µM (RET): 81%
inhibition at 1 µM (RET V804L): 79%
inhibition at 1 µM (SRC): 50%
inhibition at 1 µM (SRC N1): 52%
inhibition at 1 µM (STK4 (MST1)): 59%
inhibition at 1 µM (YES1): 73%
IC50 [1]: 21.1 nM
Compound: CN1CCN(c2ccc3[nH]c(-c4c5cccccc-5[nH]c4=O)nc3c2)CC1 [Compound B26]
tumor complete regression of all mouse ([2]; 50 mg/kg (bid)): 9 days
tumor complete regression of all mouse ([2]; 150 mg/kg (bid)): 7 days
antitumor effect ([2]; oral, 50 or 150 mg/kg bid for 14 days): potent and significant antitumor effect in a dose-dependent manner
